This note sets out measurements from PubChem BioAssay AID504944 (Broad Institute, 2011).

Calls of active or inactive are those of the source. The rule behind the calls is not given here.

System in the first assay: not listed separately
As to the kind of experiment: HeLa cell cytotoxicity, dose response, cytotoxicity control, 48 h, plate reader, cherry-picks, set 2 (AID 504944). Particulars: HeLa cytotoxicity, plate reader, 48 h; at 13.5 µM (top of the series).
Consider `COc1ccc(C2=C(C=O)Cc3ccccc3O2)cc1`, for which the activity change, negative = toxicity is 0.173% (inactive).

The same assay, now with this note: HeLa cytotoxicity, plate reader, 48 h; at 38 µM (top of the series).
With `Cc1cccc(NC(=O)Nc2cc(C)on2)c1`, the activity change, negative = toxicity is -3.2% (inactive). On the same count and under the same terms, the result for `CCOC(=O)c1ccc(N2Cc3ccccc3C2=N)cc1` reads -10.6% (inactive); that for `COC(=O)c1cc(-c2ccc(Br)cc2)on1`, -9.19% (inactive). As for `Cn1cccc1C(=O)OCc1cc(-c2ccco2)on1`, the activity change, negative = toxicity is 0.43% (inactive). Regarding `N#CC(c1cccc(Cl)c1)c1ncc(C(F)(F)F)cc1Cl` (configuration not stated), the activity change, negative = toxicity is -12.5% (inactive). Turning to `Cc1cc(C)nc(N(C#N)Cc2cccc([N+](=O)[O-])c2)n1`, the activity change, negative = toxicity is -8.51% (inactive). Still for that read-out and setting: next, `C#CCSc1ncc(-c2ccccc2)cn1`: -4.45% (inactive). Consider `CCOC(=O)N1CCN(c2ccc(Cl)cc2)CC1`, for which the activity change, negative = toxicity was 5.84% (inactive). Take `N#Cc1cc(-c2ccccc2)cnc1Cl`: the activity change, negative = toxicity is -4.08% (inactive). The same measure, in the same setting: next, `COc1ccc(/C=C/C(=O)c2ccoc2)cc1`: -17.6% (inactive). On to `CCOC(=O)CC(C#N)c1cn(C)c2ccccc12` (configuration not stated), for which the activity change, negative = toxicity is -3.91% (inactive). Same read-out and setting: next, `O=[N+]([O-])c1ccc(-c2cccnc2)cc1`: -9.26% (inactive); `CCOc1ccc(-n2cccc2C=O)cc1`: -8.05% (inactive). The same measure, in the same setting: the result for `N#CC(c1ccc(Cl)cc1)c1cccc(Cl)n1` (configuration not stated) reads -6.14% (inactive); that for `N#CN(Cc1ccccc1)Cc1ccccc1`, 2.47% (inactive); that for `CSc1nnc(-c2ccc([N+](=O)[O-])cc2)o1`, -10.7% (inactive). On the same count and under the same terms, the result for `O=C(NC1CCCC1)c1cccc(Cl)c1` reads 2.48% (inactive); that for `CCNC(=O)COc1ccc2ccccc2c1`, -6.43% (inactive).

As for `Cc1ccc(C(C#N)c2ccc(Cl)nn2)cc1` (configuration not stated), the activity change, negative = toxicity is -10.6% (inactive).

`O=C(NCC1CC1)c1cc([N+](=O)[O-])cc([N+](=O)[O-])c1`: the activity change, negative = toxicity is 5.69% (inactive).

For the compound `O=C(NC1CCS(=O)(=O)C1)c1cccc(Br)c1` (configuration not stated), the activity change, negative = toxicity is -1.62% (inactive).

On to `N#CC(c1ccccc1)c1cccc(Cl)n1` (configuration not stated), for which the activity change, negative = toxicity was 1.47% (inactive). The same measure, in the same setting: next, `O=C(NC1CCCC1)c1cc(Cl)ccc1[N+](=O)[O-]`: -2.55% (inactive); `O=C1C2C3C=CC(C4CC34)C2C(=O)N1Cc1ccco1` (configuration not stated): -2.48% (inactive). On the same count and under the same terms, the result for `CCOC(=O)CCCn1ncn2c(cc3occc32)c1=O` reads -0.83% (inactive). Consider `Cn1cccc1C(C#N)c1ccccc1C#N` (configuration not stated), for which the activity change, negative = toxicity was -10.8% (inactive). Same read-out and setting: the result for `CCOC(=O)c1ccc(-c2ccc(CO)o2)cc1` reads -14.8% (inactive); that for `Cc1ccc2scc(CN3CCCC3)c2c1`, -3.48% (inactive); that for `COc1ccc(N2CCN(C(=O)c3ccc(Br)o3)CC2)cc1`, -5.84% (inactive). As for `O=S1(=O)CCOC[C@H](c2ccccc2)N1Cc1cccc(Cl)c1`, the activity change, negative = toxicity is -9.16% (inactive). Still for that read-out and setting: the result for `O=C1N[C@@H](Cc2ccccc2)[C@@H](c2ccco2)O1` reads -3.87% (inactive); that for `O=C1C2C(C(=O)N1Cc1ccco1)C1C=CC2C12CC2` (configuration not stated), -4.39% (inactive); that for `N#CC(Sc1ccccn1)c1ccc(Cl)cc1` (configuration not stated), -11% (inactive).

Turning to `CCOC1=CC(=O)OC(c2ccccc2)C1` (configuration not stated), the activity change, negative = toxicity was -12.2% (inactive). Still for that read-out and setting: next, `COC(=O)c1ccc(OC(=O)c2ccco2)cc1`: -11.8% (inactive); `O=[N+]([O-])c1ccc(N2CCCCC2)cc1`: -9.13% (inactive); `Cc1cccc(C(C#N)c2ccc(Cl)nn2)c1` (configuration not stated): -0.066% (inactive). Same read-out and setting: the result for `N#CC(c1ccc(Cl)nn1)c1ccccc1Cl` (configuration not stated) reads -3.51% (inactive); that for `C=CCOC(=O)c1ccc(-n2cnc(C)n2)nc1`, -2.17% (inactive); that for `CCCNS(=O)(=O)c1ccc(OC)c(Cl)c1Cl`, -2.35% (inactive). For the compound `CC(C)N=C(NC#N)SCc1ccccc1F`, the activity change, negative = toxicity is 0.214% (inactive). Same read-out and setting: next, `Clc1cccc(CNCCCSc2ncccn2)c1`: -1.31% (inactive). On the same count and under the same terms, next, `N#CC(c1ccc(Cl)cc1)c1ccc(Cl)nn1` (configuration not stated): -11% (inactive); `Cc1cc(C)nc(N(C#N)Cc2ccccc2)n1`: 2.63% (inactive); `Cc1cc(NC(=O)Nc2ccccc2[N+](=O)[O-])no1`: -12.9% (inactive).

Take `Clc1ccc2scc(CN3CCCC3)c2c1`: the activity change, negative = toxicity is -10.3% (inactive). The same measure, in the same setting: the result for `Cn1cccc1C(C#N)c1cccc(F)c1C#N` (configuration not stated) reads -11.4% (inactive). For the compound `CSC1=N/C(=C\C=C\c2cccs2)C(=O)S1`, the activity change, negative = toxicity was -8.63% (inactive). The same measure, in the same setting: next, `O=[N+]([O-])c1ccc(N2CCCCC2)nc1`: -0.44% (inactive); `O=[N+]([O-])c1ccc(N2CCCC2)nc1`: -3.24% (inactive); `COC(=O)c1cc(-c2ccc(OC)cc2)on1`: 4.16% (inactive).

On to `O=CN(c1ccccc1)c1ccc2ccccc2c1`, for which the activity change, negative = toxicity is -5.5% (inactive). Same read-out and setting: next, `CCOc1ccc(CNC2CCCc3ccccc32)cc1` (configuration not stated): -11.3% (inactive). As to `Nc1ccc(OCc2ccccc2)cc1[N+](=O)[O-]`, the activity change, negative = toxicity was -5.72% (inactive). On the same count and under the same terms, next, `O=C1C=C(c2cc(F)ccc2F)C[C@@H](c2ccc(F)cc2)C1`: -9.01% (inactive); `COc1ccc(C(C#N)c2ccc(Cl)nn2)cc1` (configuration not stated): 8.42% (inactive). Still for that read-out and setting: next, `COC(=O)c1ccc(OC(=O)c2cccs2)cc1`: -10.9% (inactive); `COc1ccc(/C(C#N)=C/c2cccnc2)cc1`: -8.3% (inactive).

With `N#CC(c1ccc(Cl)nn1)c1c(F)cccc1Cl` (configuration not stated), the activity change, negative = toxicity is -4.99% (inactive). The same measure, in the same setting: the result for `Clc1ccc2scc(CN3CCCCC3)c2c1` reads -2.59% (inactive); that for `N#CC(c1ccc(Cl)cc1)c1ncc(C(F)(F)F)cc1Cl` (configuration not stated), -15% (inactive). On the same count and under the same terms, next, `CCC(C)NS(=O)(=O)c1ccc(OC)c(Cl)c1Cl` (configuration not stated): -10.1% (inactive); `N#CCn1c(C2CCCCC2)nc2ccccc2c1=O`: 0.099% (inactive).

Turning to `O=C(NC1CCCCCCC1)c1cccc(Cl)c1`, the activity change, negative = toxicity was -22.5% (inactive). On the same count and under the same terms, next, `O=CNC1(c2ccccc2)CCCCC1`: -10.5% (inactive); `COc1ccccc1C(C#N)c1cccc(Cl)n1` (configuration not stated): -0.092% (inactive); `N#CC(c1ccc(Cl)nn1)c1ccc(Cl)cc1Cl` (configuration not stated): -7.39% (inactive). Same read-out and setting: the result for `CCOC(=O)c1cc2c(s1)-c1c(C)cccc1OC2` reads -10.8% (inactive); that for `N#CC1C(C#N)C2CCC1C1C2N1c1ccccc1` (configuration not stated), -9.52% (inactive); that for `Cc1ccc(C)c(S(=O)(=O)NC2CCSC2=O)c1` (configuration not stated), -5.62% (inactive).

`CCCCCC1CC(COc2ccccc2)OC1=O` (configuration not stated): the activity change, negative = toxicity is -3.8% (inactive). The same measure, in the same setting: next, `Cc1ccc(S(=O)c2ccc(C)cc2)cc1`: -9.53% (inactive); `Cc1cc(S(=O)(=O)NCC2CC2)c(Cl)cc1Cl`: -4.01% (inactive).

In the case of `Cc1cc(NC(=O)c2cc([N+](=O)[O-])cc([N+](=O)[O-])c2C)no1`, the activity change, negative = toxicity is -10.2% (inactive). On to `CC(C)CCNC(=O)c1cccc(Cl)c1`, for which the activity change, negative = toxicity was -10.7% (inactive). On to `O=C1C=C(c2cccc(Cl)c2)C[C@@H](c2ccc(F)cc2)C1`, for which the activity change, negative = toxicity is -19.4% (inactive). `COc1ccc(CNCc2cccc(Cl)c2)cc1`: the activity change, negative = toxicity was 3.92% (inactive). The same measure, in the same setting: the result for `CC(C)(C)NC(=O)c1cc(Cl)ccc1[N+](=O)[O-]` reads -2.21% (inactive). The same measure, in the same setting: next, `CCOC(=O)c1ccc(-c2ccc(C=O)o2)cc1`: 0.584% (inactive). `Cc1ccc(S(=O)(=O)NCCC(C)C)cc1[N+](=O)[O-]`: the activity change, negative = toxicity was -2.87% (inactive).

Turning to `O=C(c1cccc([N+](=O)[O-])c1)N1CC2C3C=CC(C3)C2C1` (configuration not stated), the activity change, negative = toxicity was -2.29% (inactive). On the same count and under the same terms, the result for `Cc1cc(NC(=O)c2c(F)c(F)c(F)c(F)c2F)no1` reads -10.1% (inactive). Still for that read-out and setting: the result for `COc1ccc(N=C(C)C2=C(O)CSC2=O)cc1` reads 5.59% (inactive). Same read-out and setting: the result for `OC(c1cccc(Cl)c1)c1nccc2ccccc12` (configuration not stated) reads -10.8% (inactive); that for `COC(=O)c1ccc(NC(=S)N2CCCC2)cc1`, 0.525% (inactive).

Another assay deals with HeLa cytotoxicity, plate reader, 48 h. The assay is described as above.
Details: not given
Usually AC50 stands for the concentration at which the activity in the assay is half-maximal. Take `CO/N=C/c1cn(-c2ccc(Cl)cc2)nn1`: the AC50 was 22.3 µM. On to `O=C(Nc1ncc([N+](=O)[O-])s1)c1cccc([N+](=O)[O-])c1`, for which the half-maximal activity concentration (AC50) is 14.3 µM. On the same count and under the same terms, next, `CCOC(=O)/C=C(\C)Sc1cc(=O)oc2ccccc12`: 23.9 µM; `N#C/C(=C/c1ccco1)c1nc2ccccc2s1`: 24.4 µM; `COC(=O)c1ccc(/C=C(\C#N)c2ccccn2)cc1`: 29 µM. The same measure, in the same setting: next, `Cc1cc(NC(=O)c2cc([N+](=O)[O-])ccc2Cl)no1`: 29.1 µM.
